Data: the supplement of paper PMC10307832

How the values were obtained:
Experiment in all cases: relative viability (nuclei count vs DMSO), 5 days (fraction); higher = more cells survive
[1] = compound: CN[C@@H]1C[C@H]2O[C@@](C)([C@@H]1OC)n1c3ccccc3c3c4c(c5c6ccccc6n2c5c31)C(=O)NC4 [Staurosporine] + Nc1ncn([C@H]2C[C@H](O)[C@@H](CO)O2)c(=O)n1 [Decitabine] (partner 2 µM)
Method in brief: (§1)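 Lung cancer cell lines, seeded in 1536-well plates, were treated the following day by pin tool with a single drug or with five library-drug doses (not always all listed) in √10 steps on top of a fixed anchor-drug dose. Cells were fixed and nuclei stained in one step after 5 days, and nuclei were counted. Relative viability is the nuclei count for treated wells divided by that for vehicle wells, reported as medians of duplicate plates.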

Sulindac + OSI-027 = compound: CC1=C(CC(=O)O)c2cc(F)ccc2/C1=C\c1ccc([S+](C)[O-])cc1 [Sulindac] + COc1cccc2cc(-c3nc([C@H]4CC[C@H](C(=O)O)CC4)n4ncnc(N)c34)[nH]c12 [OSI-027] (partner 0.5 µM)
Method in brief: as §1

Sulindac + Decitabine = compound: CC1=C(CC(=O)O)c2cc(F)ccc2/C1=C\c1ccc([S+](C)[O-])cc1 [Sulindac] + Nc1ncn([C@H]2C[C@H](O)[C@@H](CO)O2)c(=O)n1 [Decitabine] (partner 2 µM)
Method in brief: as §1

[2] = compound: O=c1[nH]cc(F)c(=O)[nH]1 [5-Fluorouracil] + COc1cc2c(Oc3ccc(NC(=O)C4(C(=O)Nc5ccc(F)cc5)CC4)cc3F)ccnc2cc1OCCCN1CCOCC1 [Foretinib] (partner 0.25 µM)
Method in brief: as §1

| Cell Line | relative viability ([1]; first compound 0.005 µM) | relative viability ([1]; first compound 0.05 µM) | relative viability ([1]; first compound 0.1581 µM) | relative viability ([1]; first compound 0.5 µM) | relative viability (Sulindac + OSI-027; first compound 0.08 µM) | relative viability (Sulindac + OSI-027; first compound 0.253 µM) | relative viability (Sulindac + OSI-027; first compound 2.53 µM) | relative viability (Sulindac + OSI-027; first compound 8 µM) | relative viability (Sulindac + Decitabine; first compound 0.08 µM) | relative viability (Sulindac + Decitabine; first compound 0.253 µM) | relative viability (Sulindac + Decitabine; first compound 0.8 µM) | relative viability (Sulindac + Decitabine; first compound 2.53 µM) | relative viability (Sulindac + Decitabine; first compound 8 µM) | relative viability ([1]; first compound 0.01581 µM) | relative viability (Sulindac + OSI-027; first compound 0.8 µM) | relative viability ([2]; first compound 0.02 µM) | relative viability ([2]; first compound 0.2 µM) | relative viability ([2]; first compound 0.6325 µM) | relative viability ([2]; first compound 2 µM) |
| --- | --- | --- | --- | --- | --- | --- | --- | --- | --- | --- | --- | --- | --- | --- | --- | --- | --- | --- | --- |
| HCC-44 | 0.937 | 0.661 | 0.302 | 0.275 | 0.463 | 0.592 | 0.519 | 0.734 | 0.976 | 0.909 | 0.871 | 0.918 | 0.961 |  |  |  |  |  |  |
| HCC-78 | 0.76 | 0.627 | 0.444 | 0.49 | 0.385 | 0.395 | 0.329 | 0.381 | 0.652 | 0.672 | 0.597 | 0.653 | 0.648 | 0.617 | 0.399 | 0.548 | 0.527 | 0.459 | 0.325 |
| HCC-366 | 0.348 | 0.116 | 0.0285 | 0.0403 | 1.33 | 1.11 | 0.836 | 0.964 | 0.388 | 0.317 |  | 0.334 | 0.412 |  | 0.947 | 0.955 | 0.732 | 0.43 | 0.217 |
| HCC-827 | 0.34 | 0.288 | 0.211 | 0.189 | 0.913 | 0.777 | 0.798 | 0.761 | 0.342 | 0.31 | 0.328 | 0.332 | 0.291 | 0.274 | 0.573 | 0.879 | 0.95 | 0.602 | 0.429 |
| HOP-62 | 0.219 | 0.19 | 0.131 | 0.126 | 0.825 | 0.976 | 0.946 | 0.91 | 0.214 | 0.222 | 0.229 | 0.217 | 0.246 | 0.289 |  | 1.14 | 1.12 | 1.22 | 0.95 |
| IA-LM |  |  |  |  |  |  |  |  |  |  |  |  |  |  |  | 1.33 | 0.618 | 0.496 | 0.236 |
| LC-2-ad | 0.765 | 0.623 | 0.167 | 0.166 | 0.763 | 0.986 | 0.701 | 0.776 | 0.954 | 0.945 | 0.57 | 0.823 | 0.9 | 0.695 | 0.686 | 0.979 | 0.663 | 0.414 | 0.339 |
| LCLC-97TM1 | 0.257 | 0.217 | 0.217 | 0.223 | 0.629 | 0.626 | 0.426 | 0.589 | 0.208 | 0.263 | 0.225 | 0.247 | 0.232 | 0.198 | 0.294 | 0.941 | 0.989 | 0.941 | 0.671 |
| LCLC-103H | 0.753 | 0.34 | 0.299 | 0.278 | 0.558 | 0.499 | 0.496 | 0.555 | 0.748 | 0.787 | 0.738 | 0.661 | 0.729 | 0.484 | 0.388 | 0.845 | 0.717 | 0.454 | 0.267 |
| LK-2 | 0.327 | 0.369 | 0.0995 | 0.0618 | 0.186 | 0.209 | 0.17 | 0.21 | 0.334 | 0.361 | 0.277 | 0.239 | 0.306 | 0.173 | 0.201 | 1.6 | 1.02 | 1.13 | 0.568 |
| LOU-NH91 | 0.788 | 0.624 | 0.4 | 0.314 | 0.681 | 0.714 | 0.705 | 0.73 | 0.776 | 0.8 | 0.715 | 0.798 | 0.873 | 0.607 | 0.808 | 0.966 | 0.995 | 0.731 | 0.315 |
| NCI-H522 | 0.502 | 0.643 | 0.617 | 0.564 | 0.788 | 0.777 | 0.62 | 0.645 | 0.643 | 0.718 | 0.652 | 0.667 | 0.687 | 0.678 | 0.666 |  |  |  |  |
| NCI-H1299 |  |  |  |  |  |  |  |  |  |  |  |  |  |  |  | 1.14 | 1.12 | 1.08 | 0.908 |
| NCI-H1563 |  |  |  |  | 0.754 | 0.784 | 0.703 | 0.784 |  |  |  |  |  |  | 0.762 | 0.927 | 0.909 | 0.862 | 0.761 |
| NCI-H1623 |  |  |  |  | 0.401 | 0.427 | 0.409 | 0.421 |  |  |  |  |  |  | 0.415 | 0.567 | 0.35 | 0.306 | 0.259 |
| NCI-H1648 | 0.43 | 0.28 | 0.313 | 0.287 | 0.25 | 0.242 | 0.268 | 0.265 | 0.641 | 0.558 |  | 0.462 | 0.452 | 0.223 | 0.298 |  |  |  |  |
| NCI-H1703 |  |  |  |  |  |  |  |  |  |  |  |  |  |  |  | 0.341 | 0.383 | 0.341 | 0.348 |
| NCI-H1792 | 0.432 | 0.224 | 0.133 | 0.065 | 0.848 | 0.884 | 0.815 | 0.899 | 0.476 | 0.632 |  | 0.581 | 0.417 | 0.298 |  |  |  |  |  |
| NCI-H2228 |  |  |  |  | 0.794 | 0.687 | 0.502 | 0.56 |  |  |  |  |  |  | 0.533 | 0.981 | 0.808 | 0.625 | 0.343 |
